Laboratory results taken from patent US20110105472A1, “Diaminopyrimidines as crop protection agents” (Bayer CropScience AG, priority 2008, published 2011).
Marks after values point to notes of the source that are not given here.

Test: logP by HPLC on reversed-phase columns (C 18), method [a], acidic range pH 2.3
Type: physicochemical
Settings: method [a], HPLC on reversed-phase C 18, acidic range pH 2.3

log p	Compound
1.52[a]	NS(=O)(=O)c1cccc(Nc2ncc(Cl)c(NC3CCC3)n2)c1 [Compound 23]

Same assay, conditions: pH 2.3

Compound	log p	chromatographic logP
CC(C)Oc1ccc(Nc2ncc(Cl)c(NC3CCC3)n2)cc1.Cl [Compound 2-6]	2.21^[a]	
CC(C)Oc1ccc(Nc2ncc(Cl)c(NC3CCC3)n2)cc1.Cl [Compound 36, 5-Chloro-N^4-cyclobutyl-N^2-(4-isopropoxyphenyl)pyrimidine-2,4-diamine hydrochloride]		2.21
CN(c1nc(Nc2ccccc2)ncc1Cl)C1CCC1 [compound 245]	3.32[a]	
Cc1ccc(S(=O)(=O)O)cc1.Cc1nc(Nc2ccccc2)nc(NC2CCC2)c1Cl [Compound 2-8]	1.95^[a]	
CC1(Nc2nc(Nc3ccccc3)ncc2Cl)CCC1 [Compound 52, 5-Chloro-N^4-(1-methylcyclobutyl)-N^2-phenylpyrimidine-2,4-diamine]		2.1
Clc1ncc(I)c(NC2CCC2)n1 [Compound V-3, 2-Chloro-N-cyclobutyl-5-iodopyrimidine-4-amine]		3.08
Clc1ncc(Br)c(NC2CCC2)n1 [Compound V-2, 5-Bromo-2-chloro-N-cyclobutylpyrimidine-4-amine]		2.87
Clc1ncc(Cl)c(NC2CCC2)n1 [Compound V-1, 2,5-Dichloro-N-cyclobutylpyrimidine-4-amine]		2.62
FC(F)(F)c1cnc(Cl)nc1NC1CCC1 [Compound V-4, 2-Chloro-N-cyclobutyl-5-trifluoromethylpyrimidine-4-amine]		3.2
CC(C)(C)OC(=O)N1CCN(c2ccc(Nc3ncc(Cl)c(NC4CCC4)n3)cc2)CC1 [compound 28]	2.73[a]	
Cl.Clc1cnc(Nc2ccccc2)nc1NC1CCC1 [Compound 2-2]	1.97^[a]	
Ic1cnc(Nc2ccccc2)nc1NC1CCC1 [Compound 236]	2.19[a]	

Other lines, results leading:

log p	chromatographic logP	Compound
	3.27	CCCOc1cccc(Nc2ncc(Br)c(NC3CCC3)n2)c1 [Compound 30, 5-Bromo-N^4-cyclobutyl-N^2-(3-propoxyphenyl)pyrimidine-2,4-diamine]
2.04^[a]		CC(=O)c1cccc(Nc2ncc(Cl)c(NC3CCC3)n2)c1.Cl [Compound 2-4]
3.09^[a]		Cl.Clc1cccc(Nc2ncc(Cl)c(NC3CCC3)n2)c1 [Compound 2-1]
2.01[a]		CNS(=O)(=O)c1ccc(Nc2ncc(Cl)c(NC3CCC3)n2)cc1 [compound 25]
2.58^[a]		CN(C)S(=O)(=O)c1ccc(Nc2ncc(Cl)c(NC3CCC3)n2)cc1.Cl [Compound 2-7]
1.96[a]		O=C1CCCCCN1c1cccc(Nc2ncc(Cl)c(NC3CCC3)n2)c1 [Compound 216]
1.75[a]		O=C1CCCN1c1cc(Nc2ncc(Cl)c(NC3CCC3)n2)ccc1F [Compound 212]
2.23^[a]		COc1cc(Nc2ncc(Cl)c(NC3CCC3)n2)cc(OC)c1.Cl [Compound 2-3]
2.74^[a]		CC(C)c1ccc(Nc2ncc(Cl)c(NC3CCC3)n2)cc1.Cl [Compound 2-5]
1.62[a]		NS(=O)(=O)c1ccc(Nc2ncc(Cl)c(NC3CCC3)n2)cc1 [compound 27]

Same assay, conditions: pH 2.3; values given in the preparation examples

logP (pH2.3)	Compound
1.52	NS(=O)(=O)c1cccc(Nc2ncc(Cl)c(NC3CCC3)n2)c1 [Compound 23]

Test: logP by LC-MS, method [b], acidic range pH 2.7
Type: physicochemical
Settings: pH 2.7

chromatographic logP	Compound	log p
	CC(C)Oc1ccc(Nc2ncc(Cl)c(NC3CCC3)n2)cc1.Cl [Compound 36, 5-Chloro-N^4-cyclobutyl-N^2-(4-isopropoxyphenyl)pyrimidine-2,4-diamine hydrochloride]	2.44[b]
2.1	CC1(Nc2nc(Nc3ccccc3)ncc2Cl)CCC1 [Compound 52, 5-Chloro-N^4-(1-methylcyclobutyl)-N^2-phenylpyrimidine-2,4-diamine]	
3.27	CCCOc1cccc(Nc2ncc(Br)c(NC3CCC3)n2)c1 [Compound 30, 5-Bromo-N^4-cyclobutyl-N^2-(3-propoxyphenyl)pyrimidine-2,4-diamine]	

Test: physchem
Type: physicochemical
Settings: pH 7.8

Compound	log p
CC(C)NC(=O)c1ccc(Nc2ncc(Cl)c(NC3CCC3)n2)cc1 [Compound 248]	2.68[c]
CC(C#N)c1ccc(Nc2ncc(Cl)c(NC3CCC3)n2)cc1 (stereo not shown) [Compound 234]	3.45[c]
CCSc1cccc(Nc2ncc(C(F)(F)F)c(NC3CCC3)n2)c1 [Compound 235]	4.8[c]
CCN(CC)C(=O)c1ccc(Nc2ncc(Cl)c(NC3CCC3)n2)cc1 [Compound 250]	3.19[c]

Other lines, results leading:

log p	Compound
2.63[c]	CS(=O)(=O)c1cccc(Nc2ncc(Cl)c(NC3CCC3)n2)c1 [Compound 263]
2.49[c]	CC(=O)N(C)c1cccc(Nc2ncc(Cl)c(NC3CCC3)n2)c1 [Compound 261]
2.39[c]	O=C(c1cccc(Nc2ncc(Cl)c(NC3CCC3)n2)c1)N1CCOCC1 [Compound 262]
